Active and inactive are the calls of the source. No rule for the calls is given here.

The subject of the test is BLA reporter cell line, FRET fluorescence counterscreen. Kind of test: BLA enzyme inhibitors in reporter cells – cell-based, FRET fluorescence, dose response, counter-screen for NOD2-RIPK2 interaction inhibitor project, late-stage follow-up (AID 651961). (In general: The purpose of a counterscreen is to sort out artefacts and off-target activity.)

On to `COc1ccc(C(C[N+](=O)[O-])n2nc(C)cc2C)cc1` (stereo unspecified), for which the IC50 is > 49.8 µM (inactive).
Take `O=S(=O)(c1ccccc1)N1CCCCCC1`: the IC50 was > 49.8 µM (inactive).
Turning to `O=[N+]([O-])c1cc(S(=O)(=O)N2CCCCCC2)ccc1F`, the IC50 was > 49.8 µM (inactive).
With `O=[N+]([O-])c1cccc(S(=O)(=O)N2CCCCCC2)c1`, the IC50 was > 49.8 µM (inactive).
For `Cc1ncc([N+](=O)[O-])n1Cc1ccc(Cl)c(Cl)c1` the value was > 49.8 µM (inactive); for `O=S(=O)(c1ccc(F)cc1)N1CCCCCC1`, > 49.8 µM (inactive).
Regarding `Cc1nc([N+](=O)[O-])c(Br)n1Cc1ccccc1`, the IC50 was > 49.8 µM (inactive).
With `Cc1nc([N+](=O)[O-])c(Br)n1Cc1ccc(Cl)c(Cl)c1`, the IC50 was > 49.8 µM (inactive).
As to `Cc1ccc(C(C[N+](=O)[O-])n2nc(C)cc2C)cc1` (stereo unspecified), the IC50 was > 49.8 µM (inactive).
For the compound `Cc1ccc(S(=O)(=O)N2CCCCCC2)cc1[N+](=O)[O-]`, the IC50 was > 49.8 µM (inactive).
With `Cc1cc(S(=O)(=O)N2CCCCCC2)ccc1F`, the IC50 was > 49.8 µM (inactive).

For orientation: IC50 means the concentration needed to halve the response being measured.

(Values after PubChem BioAssay AID651961 (The Scripps Research Institute Molecular Screening Center, 2012).)
